Experimental data as given in patent publication US8304418B2, “Pyrazolopyrimidinone kinase inhibitor” (Agennix AG, priority 2007, dated 2012).
≈ marks a conversion by molar mass, not a printed value. Where “and” joins values, the source holds several entries; their conditions need not be identical. Identical values can stand only once. Like-named read-outs stand apart in the source and are kept apart here.

Legend:
[1] = system: CDK9-specific phosphorylation of RNA polymerase II (RNAPII) on serine 2; test: In-cell RNAPII phosphorylation (immunoblot); format: cell-based, human; details: 3 h
Description: (§1) The following cancer cell lines were investigated in the course of these studies: A2780 (ovarian), HCT116 (colon), RPMI8226 (myeloma), SKMel28 (melanoma), Colo205 (colorectal), MDA-MB-435 (melanoma), MDA-MB-453 (breast, carcinoma), MDA-MB-468 (breast, adenocarcinoma), A549 (lung), Raji (lymphoma, Burkitt). Cell lines were obtained from public repositories.
CDK9-specific phosphorylation of RNA polymerase II (RNAPII) on Serine 2 (Ser2). Asynchronous cells were treated with an appropriate concentration of test compound or DMSO as a control. After 3 h incubation (37° C./5% CO2) cells were lysed with CLB-1 lysis buffer (Zeptosense, Switzerland), the lysate was cleared by centrifugation (10 min, 13000 rpm, RT) and subjected to SDS-PAGE. Total protein was blotted on PVDF membranes and analyzed using antibodies against S2-phosphorylated RNAPII (H5; Covance) or total RNAPII (N-20; Santa Cruz) as an expression control. Visualization was conducted using secondary Alexa680- or IR800-coupled antibodies (Molecular Probes) against mouse or rabbit Fc tails on the Odyssey-system (Licor). Specific bands were quantified and IC50 values of inhibition of RNAPII phosphorylation were estimated.

[2] = system: CDK1-dependent Eg-5 phosphorylation on threonine 927; test: In-cell Eg-5 phosphorylation (immunoblot); format: cell-based, human; details: 1 h
From the text: (§2) This set of assays represents CDKs involved in cell cycle progression (CDK1, 4/6), and the “regulatory CDK” (CDK9) which is involved in transcriptional regulation.
as §1
CDK1-dependent Eg-5 phosphorylation on threonine 927 (Thr927phos). Thr927phos was investigated by arresting cells over night in G2/M phase with 25 ng/ml nocodazole (optimized final concentration) followed by treatment with DMSO as control or an appropriate concentration of test compound for 1 hour. Detached as well as adherent cells were collected and lysed with CLB-1 lysis buffer. the lysate cleared by centrifugation and subjected to SDS-PAGE. The proteins were blotted on PVDF membranes and subsequently analyzed by antibodies against total Eg-5 (Becton Dickinson) and Eg-5 Thr927phos (Bio legend). Visualization and estimation of IC50 was conducted as above.

[3] = system: human A2780 ovarian tumor cells
Description: (§4) Xenograft Tumor-Models: 100 athymic nu/nu female mice (6-8 weeks old) from CRL were allowed to acclimate for 4 days. […] The 3rd passage of cells with approximate 90% confluence was used for these experiments. Briefly, on Day 0, mice were inoculated with 0.1 ml (total 5×10^6 cells) of the respective cell-type as a cell suspension (50×10^6 cells/ml) by subcutaneous injection into the fat pad area near the mammary gland under light anesthesia. When the average tumor weight in all mice reached over 100 mg (day 10), 80 animals with an average tumor size of 130 mg were selected and were randomly divided into 8 groups.
(§5) A 20 G gavage needle was used for the oral treatment.
(§6) Tumor growth and body weight were monitored and recorded three times a week. Tumors were measured by determining the length and width of the tumor with a digital caliper. Tumor weight was estimated using the following formula: Tumor Weight (mg)=(w^2×1)×0.52 where w=width and l=length in mm of the tumor.
(§7) Experimental treatment may cause partial regression (PR) or complete regression (CR) of tumors. PR is defined when the tumor size is 50% or less than the starting (day 1) size but greater than 0.0 mg for three consecutive measurements during the course of the study. CR occurs when there is no measurable tumor mass for three consecutive measurements. Cures are defined when CR are maintained until the completion of the experiment.
(§8) Mice were sacrificed when their tumors reached the 1000 mm^3 endpoint volume. Treatment efficacy was determined as Log Cell Kill (LCK).
(§9) Toxic deaths are defined as deaths caused by compound treatment and not by advanced disease state. […] Non-tumor related deaths after this point are recorded, but not considered toxic deaths.
(§10) Briefly, the empirical distributions of T and Td were derived from B=1000 realisations of random selection of n individual animals with replacement from the set i=1, . . . , n of the appropriate group of mice containing n evaluable animals, estimating the mean tumor size for such selection of animals for each time-point, and linear regression analysis from a semi-log plot of such averages against time. Dead mice and mice with no measurable tumor size were treated as missing data and were ignored when calculating the average.

[4] = system: HCT116 colon carcinoma cells
Description: as §4, §5, §6, §7, §8, §9, §10

H460 NSCLC = details: for Max % TGI (d): day 13; for Toxic Mortality: N=10
Description: as §4, §5, §6, §7, §8, §9, §10

CDK6 = CDK6 (Homo sapiens, UniProt Q00534); test: Biochemical CDK6 inhibition assay
Description: (§3) The assays used for determining the properties of the kinase inhibitors were performed in accordance with standard procedures well known to those skilled in the art. For example, assays for determining inhibitory activity on CDKs or in cellular assays are described in WO 00/218962, WO 2005/026129, and WO 2005/063765. Solubility assays at pH 7.4 were essentially performed as described by Avdeef, A. in Pharmacokinetic Optimization in Drug Research; Testa, B.; van de Waterbeemd, H.; Folkers, G.; Guy, R. Eds.; Wiley-VHC: Zurich, 2001; pp 305-326. PAMPA permeability assays at pH 7.4 were essentially performed as described in Kansy et al., J. Med. Chem. 41: 1007-10, 1998.

[5] = system: CDK4/6-specific phosphorylation of Rb on serine 780; test: In-cell Rb phosphorylation (immunoblot); format: cell-based, human; details: 1 h, read-out: IC50 (uM) - Rb-5 phosphorylation
From the text: as §2, §1
CDK4/6-specific phosphorylation of Rb on serine 780 (Ser780phos). Asynchronous growing cells were treated with an appropriate concentration of test compound or DMSO for 1 hour. Proteins were extracted using the AllPrep RNA/Protein kit according to the manufacturer's recommendations (Qiagen, Germany). Rb was immunoprecipitated over night using Ab05 antibody (Oncogene Inc.). Proteins were separated by SDS-PAGE, blotted to PVDF membranes and analyzed with antibodies against total (sc-102; Santa Cruz) or Ser780-phosphorylated Rb proteins (Cell Signalling). Visualization and quantification was performed as above.

[6] = system: human A2780 ovarian tumor cells; remark: listed apart in the source
Description: Compound P (as hydrochloric acid salt) was formulated in 30% PEG300/70% water, and Compound I (as hydrochloric acid salt) was formulated in 20% PEG300/80% D5W (5% dextrose water) and administered by oral gavage twice every day for 10 days (bid×10), while the Cytoxan control which was administered i.p. in saline every two days over a period of 10 days (q2 d×5): […]

[7] = PAMPA permeability assay at pH 7.4; format: in vitro ADME
Description: as §3

[8] = system: cell lines A2780, HCT-116, HT-29, HepG2, NCI/ADR-RES, OVCAR3, H460, IMR-90, T98G, A549 among others; test: Inhibition of proliferation in a set of cancer-model cell lines; format: cell-based; details: units (μM and nM) printed inside the value, read-out: IC50 values, inhibition of proliferation (range over cell lines)
Description: as §3

[9] = Solubility assay at pH 7.4; format: physicochemical; details: pH 7.4, aqueous buffer
Description: as §3

[10] = 30 [28] mg/kg po bidx10, day 10
[11] = HCT116, 100 [93] mg/kg po qdx10

Chain of CDK6 (Q00534 whole entry): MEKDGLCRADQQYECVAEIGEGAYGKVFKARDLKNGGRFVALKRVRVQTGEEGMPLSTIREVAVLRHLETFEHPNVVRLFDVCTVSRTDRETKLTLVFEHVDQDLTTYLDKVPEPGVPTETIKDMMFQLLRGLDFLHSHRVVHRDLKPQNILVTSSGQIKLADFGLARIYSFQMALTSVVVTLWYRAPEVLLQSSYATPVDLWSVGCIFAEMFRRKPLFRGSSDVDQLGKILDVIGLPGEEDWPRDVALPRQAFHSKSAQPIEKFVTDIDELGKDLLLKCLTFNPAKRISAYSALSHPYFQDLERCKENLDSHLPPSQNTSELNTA
Chain of CDK6 (P30281 whole entry partner): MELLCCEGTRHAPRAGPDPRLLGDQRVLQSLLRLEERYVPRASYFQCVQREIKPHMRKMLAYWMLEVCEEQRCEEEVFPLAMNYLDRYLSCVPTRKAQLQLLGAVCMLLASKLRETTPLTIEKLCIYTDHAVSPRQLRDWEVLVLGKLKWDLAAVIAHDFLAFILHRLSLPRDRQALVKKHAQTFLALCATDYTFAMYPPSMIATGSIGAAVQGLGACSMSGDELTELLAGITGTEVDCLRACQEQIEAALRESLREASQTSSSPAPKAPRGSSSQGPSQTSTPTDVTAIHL

COc1ccc(F)c(F)c1C(=O)c1cnc(NC2CCN(S(C)(=O)=O)CC2)nc1N [Compound R547]
IC50 ([1]; A2780 cells): ~1 µM | IC50 ([1]; Colo205 cells): ~0.5 µM | IC50 ([1]; HCT116 cells): ~0.3 µM | IC50 ([1]; MDA-MB-468 cells): ~0.3 µM | IC50 ([1]; RPMI8226 cells): ~0.5 µM | IC50 ([1]; Sk-mel-28 cells): ~0.3 µM | IC50 ([2]; A549 cells): ~0.03 µM | IC50 ([2]; A2780 cells): ~0.01 µM | IC50 ([2]; Colo205 cells): ~0.05 µM | IC50 ([2]; HCT116 cells): ~0.1 µM | IC50 ([2]; MDA-MB-435 cells): ~0.1 µM | IC50 ([2]; MDA-MB-453 cells): ~0.1 µM | IC50 ([2]; RPMI8226 cells): ~0.05 µM | IC50 ([2]; Raji cells): ~0.1 µM | LCK ± CI (95%) (Td: 1.7 d) ([3]; 100 mg/kg po qdx1): 1.05 ± 0.56 | Max % BW Loss (d) ([3]; 100 mg/kg po qdx1 (planned qdx10), day 9): 7.5 (9) % | Max % TGI (d) ([3]; 100 mg/kg po qdx1, day 11): 68.5 (11) % | LCK ± CI (95%) (Td: 6.8 d) ([4]; HCT116, 100 mg/kg po qdx10 (R547 suspension)): 0.70 ± 0.28 | Max % BW Loss (d) ([4]; HCT116, 100 mg/kg po qdx10 (R547 suspension), day 12): 14.5 (12) % | Max % TGI (d) ([4]; HCT116, 100 mg/kg po qdx10 (R547 suspension), day 16): 72.8 (16) % | LCK ± CI (95%) (Td: 2.6 d) (H460 NSCLC; H460, 40 mg/kg po q2dx5): 0.48 ± 0.20 and 0.48 | Max % BW Loss (d) (H460 NSCLC; H460, 40 mg/kg po q2dx5, day 8): 1.3 (8) % | Max % TGI (d) (H460 NSCLC; H460, 40 mg/kg po q2dx5): 47.5 (13) % | IC50 (CDK6): ~10 nM | IC50 ([5]; A2780 cells): ~0.1 µM | IC50 ([5]; Colo205 cells): ~0.1 µM | IC50 ([5]; HCT116 cells): ~0.1 µM | IC50 ([5]; MDA-MB-435 cells): ~0.3 µM | IC50 ([5]; RPMI8226 cells): ~0.3 µM | IC50 ([5]; Sk-mel-28 cells): ~0.1 µM

O=P1(N(CCCl)CCCl)NCCCO1 (stereo not shown) [Cytoxan, cyclophosphamide]
LCK ± CI (95%) (Td: 2.1 d) ([6]; 100 mg/kg ip q2dx5): 3.56 ± 0.43 and 3.56 | Cure ([6]; 100 mg/kg ip q2dx5, N=10): 0 | Toxic Mortality ([6]; 100 mg/kg ip q2dx5, N=10): 0 | Max % BW Loss (d) ([6]; 100 mg/kg ip q2dx5, day 10): 5.9 (10) % | Max % TGI (d) ([6]; 100 mg/kg ip q2dx5, day 13): 98 (13) % | CR ([6]; 100 mg/kg ip q2dx5, mice with complete regression, N=10): 5 | PR ([6]; 100 mg/kg ip q2dx5, mice with partial regression, N=10): 5

CC(C)c1nn(-c2c(Cl)cccc2Cl)c2nc(Cc3ccc(CN4CCCC4)c(O)c3)[nH]c(=O)c12 [Compound P, 1-(2,6-dichlorophenyl)-6-(3-hydroxy-4-pyrrolidinomethyl-phenyl)methyl-3-isopropyl-pyrazolo[3,4-d]pyrimidin-4-one]
LCK ± CI (95%) (Td: 2.1 d) ([6]; 15 [14] mg/kg po bidx10): 0.20 ± 0.16 and 0.20 | Toxic Mortality ([6]; 15 [14] mg/kg po bidx10, N=10): 0 | Max % TGI (d) ([6]; 15 [14] mg/kg po bidx10, day 10): 34 (10) % | Max % BW Loss (d) ([6]; 15 [14 free base] mg/kg po bidx10, HCl salt, day 6): 0 (6) % | LCK ± CI (95%) (Td: 2.1 d) ([6]; 30 [28] mg/kg po bidx10): 0.44 ± 0.19 and 0.44 | Toxic Mortality ([6]; 30 [28] mg/kg po bidx10, N=10): 0 | Max % BW Loss (d) [6, 10]: 0.1 (10) % | Max % TGI (d) [6, 10]: 54 (10) % | LCK ± CI (95%) (Td: 2.1 d) ([6]; 50 [47] mg/kg po bidx10): 1.06 ± 0.48 and 1.06 | Toxic Mortality ([6]; 50 [47] mg/kg po bidx10, N=10): 0 | Max % TGI (d) ([6]; 50 [47] mg/kg po bidx10, day 13): 81 (13) % | Max % BW Loss (d) ([6]; 50 [47] mg/kg po bidx10, day 15): 4.7 (15) % | permeability in a PAMPA assay [7]: about 57% | LCK ± CI (95%) (Td: 1.7 d) ([3]; 40 [37] mg/kg po qdx10): 0.34 ± 0.21 and 0.34 | Toxic Mortality ([3]; 40 [37] mg/kg po qdx10, N=10): 0 | Max % TGI (d) ([3]; 40 [37] mg/kg po qdx10, day 11): 46.2 (11) % | LCK ± CI (95%) (Td: 1.7 d) ([3]; 70 [65] mg/kg po qdx10): 0.75 ± 0.46 and 0.75 | Toxic Mortality ([3]; 70 [65] mg/kg po qdx10, N=10): 0 | Max % TGI (d) ([3]; 70 [65] mg/kg po qdx10, day 11): 61.1 (11) % | LCK ± CI (95%) (Td: 1.7 d) ([3]; 100 [93] mg/kg po qdx9): 1.78 ± 0.56 and 1.78 | Toxic Mortality ([3]; 100 [93] mg/kg po qdx9): 1/10 | Max % TGI (d) ([3]; 100 [93] mg/kg po qdx9, day 11): 83.9 (11) % | LCK ± CI (95%) (Td: 6.8 d) ([4]; HCT116, 40 [37] mg/kg po qdx10): 0.23 ± 0.11 and 0.23 | Max % TGI (d) ([4]; HCT116, 40 [37] mg/kg po qdx10, day 20): 36.2 (20) % | LCK ± CI (95%) (Td: 6.8 d) ([4]; HCT116, 70 [65] mg/kg po qdx10): 0.41 ± 0.22 and 0.41 | Max % TGI (d) ([4]; HCT116, 70 [65] mg/kg po qdx10, day 32): 50.2 (32) % | LCK ± CI (95%) (Td: 6.8 d) [4, 11]: 0.38 ± 0.13 and 0.38 | Toxic Mortality [4, 11]: 1/10 | Max % TGI (d) ([4]; HCT116, 100 [93] mg/kg po qdx10, day 16): 60.1 (16) % | Max % BW Loss (d) ([4]; mouse, in vivo, po): 17.3 (16) % | LCK ± CI (95%) (Td: 2.6 d) (H460 NSCLC; H460, 40 [37] mg/kg po qdx10): 0.22 ± 0.12 and 0.22 | Toxic Mortality (H460 NSCLC; H460, 40 [37] mg/kg po qdx10): 0 | Max % TGI (d) (H460 NSCLC; H460, 40 [37] mg/kg po qdx10): 29.6 (13) % | LCK ± CI (95%) (Td: 2.6 d) (H460 NSCLC; H460, 70 [65] mg/kg po qdx10): 0.26 ± 0.12 and 0.26 | Toxic Mortality (H460 NSCLC; H460, 70 [65] mg/kg po qdx10): 0 | Max % TGI (d) (H460 NSCLC; H460, 70 [65] mg/kg po qdx10): 33.9 (13) % | LCK ± CI (95%) (Td: 2.6 d) (H460 NSCLC; H460, 100 [93] mg/kg po qdx10): 0.54 ± 0.17 and 0.48 and 0.54 | Toxic Mortality (H460 NSCLC; H460, 100 [93] mg/kg po qdx10): 0 | Max % TGI (d) (H460 NSCLC; H460, 100 [93] mg/kg po qdx10): 48.7 (13) % | Max % BW Loss (d) (H460 NSCLC; mouse, in vivo, po): 1.0 (8) % and 0% and 7.4 (13) % | IC50 [8]: 0.016 to 1.6 µM | solubility [9]: ~210 µM (≈ 108 µg/mL)
